The text below walks through data of patent publication US11040031B2, “Pyrazole derivatives as MALT1 inhibitors” (Janssen Pharmaceutica NV, priority 2018, dated 2021).

Read-outs that look alike come from different tables or passages of the source.

For assay [1], the system named is Secretion of IL6 by OCI-LY3 ABC-DLBCL cells. The assay can be described thus: Human IL6 Mesoscale assay (OCI-LY3). Type of assay: cell-based. Particulars: read-out: Human IL6 Mesoscale assay (OCI-LY3). The procedure:
(§1) NFKB signaling regulates the secretion of multiple cytokines, including IL6 and IL10. Secretion of the cytokines IL6 and IL10 by TMD8 or OCI-LY3 ABC-DLBCL cells was measured using a mesoscale assay.
(§2) Cell passage number should not exceed 30. Cells should be kept between 0.5-2.5 million cells per mL during culturing and cells should be supplemented every 2-3 days with fresh 50 µM beta-mercaptoenthanol. No beta-mercaptoethanol was used during the mesoscale assay.
(§3) DMSO control wells were used to determine the maximum signal (High Control (HC)). […] Compounds and cells were incubated for 24 h at 37° C. and 5% CO2 (assay volume is 150 μL). After 24 h of incubation 50 μL of the supernatant was transferred to a MSD plate (V-Plex Proinflammation Panel 1 (human) kit, Mesoscale (MSD)) and incubated for 2 h with vigorous shaking (600 rpm) at room temperature. Following incubation, plates were washed 3× with PBS+0.05% Tween-20 and 25 μL detection antibody solution (IL6 & IL10 antibodies in diluent 3 (MSD)) was added per well followed by 2 h of incubation with vigorous shaking (600 rpm) at room temperature. After 3× washes with PBS+0.05% Tween-20, plates were incubated with 150 μL 2× Read Buffer T and read on SECTOR imager.

The target of assay [2] is T1, full-length MALT1 protein (Strep-MALT1(1-824)-His) (Homo sapiens, UniProt Q9UDY8).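 Also: fluorogenic LRSR-AMC substrate cleavage by MALT1, 50 min compound preincubation then 4 h reaction at RT, 11-point dilution from 30 µM, scaled between enzyme-free and untreated enzyme controls.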
T1 sequence (Q9UDY8 1-824): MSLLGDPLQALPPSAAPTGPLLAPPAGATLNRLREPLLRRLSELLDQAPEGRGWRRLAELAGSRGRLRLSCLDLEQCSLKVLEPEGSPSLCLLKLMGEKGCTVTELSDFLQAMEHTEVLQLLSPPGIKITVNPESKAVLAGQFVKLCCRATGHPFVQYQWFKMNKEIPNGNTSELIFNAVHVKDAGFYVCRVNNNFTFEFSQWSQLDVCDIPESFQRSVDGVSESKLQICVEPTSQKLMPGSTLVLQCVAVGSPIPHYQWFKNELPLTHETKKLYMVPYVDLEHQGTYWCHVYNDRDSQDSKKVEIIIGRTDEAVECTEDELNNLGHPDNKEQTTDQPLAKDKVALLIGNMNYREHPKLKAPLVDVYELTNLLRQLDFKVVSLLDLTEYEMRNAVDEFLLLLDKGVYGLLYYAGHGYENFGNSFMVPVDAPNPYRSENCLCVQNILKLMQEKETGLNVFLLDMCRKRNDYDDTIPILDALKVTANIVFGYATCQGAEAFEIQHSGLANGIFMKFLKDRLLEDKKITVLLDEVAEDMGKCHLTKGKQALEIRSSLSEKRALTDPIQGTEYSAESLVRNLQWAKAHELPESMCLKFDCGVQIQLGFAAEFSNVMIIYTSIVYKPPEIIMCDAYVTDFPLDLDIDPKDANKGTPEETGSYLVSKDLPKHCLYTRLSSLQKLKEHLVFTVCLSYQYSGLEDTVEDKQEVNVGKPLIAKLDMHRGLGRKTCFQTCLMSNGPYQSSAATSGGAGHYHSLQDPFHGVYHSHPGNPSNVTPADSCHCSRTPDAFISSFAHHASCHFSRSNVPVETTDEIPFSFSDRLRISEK
The assay can be described thus: biochemical.

Assay [3] relates to Secretion of IL10 by OCI-LY3 ABC-DLBCL cells. The assay can be described thus: Human IL10 Mesoscale assay (OCI-LY3). It is filed as cell-based. Particulars: read-out: Human IL10 Mesoscale assay (OCI-LY3). The procedure: as §1, §2, §3
Setting [4] is: OCI-LY3 cells, 24 h incubation, supernatant, MSD V-Plex.

In the case of `Cc1cc(C#N)ccc1-n1ncc(C(=O)Nc2cnc(-n3nccn3)c(Cl)c2)c1C(F)(F)F` [Cpd 37, N-(5-chloro-6-(2H-1,2,3-triazol-2-yl)pyridin-3-yl)-1-(4-cyano-2-methylphenyl)-5-(trifluoromethyl)-1H-pyrazole-4-carboxamide], the IC50 was determined as 0.095 µM in assay [1] (setting [4]), 0.063 µM in assay [2] and 0.063 µM in assay [3] (setting [4]). For the molecule `O=C(Nc1cnc(-n2nccn2)c(Cl)c1)c1cnn(-c2ccc(F)c(F)c2Cl)c1C(F)(F)F` [Cpd 73, 1-(2-chloro-3,4-difluorophenyl)-N-(5-chloro-6-(2H-1,2,3-triazol-2-yl)pyridin-3-yl)-5-(trifluoromethyl)-1H-pyrazole-4-carboxamide], the IC50 in assay [1] (setting [4]) worked out at 0.138 µM; in assay [2], 0.234 µM; in assay [3] (setting [4]) it was 0.11 µM. The matching figures for `N#Cc1cc(NC(=O)c2cnn(-c3ccc(F)c(F)c3F)c2C(F)(F)F)cnc1-n1nccn1` [Cpd 97, N-(5-cyano-6-(2H-1,2,3-triazol-2-yl)pyridin-3-yl)-5-(trifluoromethyl)-1-(2,3,4-trifluorophenyl)-1H-pyrazole-4-carboxamide]: 0.151 µM, 0.263 µM and 0.095 µM. For the molecule `N#Cc1cc(NC(=O)c2cnn(-c3c(Cl)cc(F)cc3Cl)c2C(F)(F)F)cnc1-n1nccn1` [Cpd 102, N-(5-cyano-6-(2H-1,2,3-triazol-2-yl)pyridin-3-yl)-1-(2,6-dichloro-4-fluorophenyl)-5-(trifluoromethyl)-1H-pyrazole-4-carboxamide], the IC50 came to 0.158 µM in assay [1] (OCI-Ly3, 24 h); 0.151 µM in assay [2]; 0.158 µM in assay [3] (OCI-Ly3, 24 h). Regarding `Cc1c(-n2ncc(C(=O)Nc3cnc(-n4nccn4)c(Cl)c3)c2C(F)(F)F)ccc(F)c1F` [Cpd 174, N-(5-chloro-6-(2H-1,2,3-triazol-2-yl)pyridin-3-yl)-1-(3,4-difluoro-2-methylphenyl)-5-(trifluoromethyl)-1H-pyrazole-4-carboxamide], the IC50 in assay [2] worked out at 0.17 µM; in assay [3] (setting [4]), 0.083 µM. As for `Cc1c(-n2ncc(C(=O)Nc3cnc(-n4nccn4)c(Cl)c3)c2C(F)(F)F)ccnc1N` [Cpd 199, 1-(2-amino-3-methylpyridin-4-yl)-N-(5-chloro-6-(2H-1,2,3-triazol-2-yl)pyridin-3-yl)-5-(trifluoromethyl)-1H-pyrazole-4-carboxamide], the IC50 in assay [2] was determined as 0.174 µM. For the molecule `Cc1nc(C#N)ccc1-n1ncc(C(=O)Nc2cnc(-n3nccn3)c(Cl)c2)c1C(F)(F)F` [Cpd 201, N-(5-chloro-6-(2H-1,2,3-triazol-2-yl)pyridin-3-yl)-1-(6-cyano-2-methylpyridin-3-yl)-5-(trifluoromethyl)-1H-pyrazole-4-carboxamide], in assay [2], the IC50 was 0.138 µM. The same measure, in the same setting: for `O=C(Nc1cnc(-n2nccn2)c(Cl)c1)c1cnn(-c2cccc(Br)n2)c1C(F)(F)F` [Cpd 202, 1-(6-bromopyridin-2-yl)-N-(5-chloro-6-(2H-1,2,3-triazol-2-yl)pyridin-3-yl)-5-(trifluoromethyl)-1H-pyrazole-4-carboxamide] the value was 0.741 µM; for `O=C(Nc1cnc(-n2nccn2)c(Cl)c1)c1cnn(-c2cccc(-c3ccco3)n2)c1C(F)(F)F` [Cpd 207, N-(5-chloro-6-(2H-1,2,3-triazol-2-yl)pyridin-3-yl)-1-(6-(furan-2-yl)pyridin-2-yl)-5-(trifluoromethyl)-1H-pyrazole-4-carboxamide], 5.62 µM; for `O=C(Nc1cnc(-n2nccn2)c(Cl)c1)c1cnn(-c2cccc(C3=COCCO3)n2)c1C(F)(F)F` [Cpd 208, N-(5-chloro-6-(2H-1,2,3-triazol-2-yl)pyridin-3-yl)-1-(6-(5,6-dihydro-1,4-dioxin-2-yl)pyridin-2-yl)-5-(trifluoromethyl)-1H-pyrazole-4-carboxamide], 5.13 µM.
